The subject of this test is iCell cardiomyocytes (human iPSC-derived cardiomyocytes). The experiment in a line: High-content imaging of cytotoxicity and mitochondrial integrity in iPSC-CMs. Format: cell-based. As to conditions: Homo sapiens; for viability at 0.01 µM / activity at 0.01 µM / viability at 0.1 µM / activity at 0.1 µM / viability at 1 µM / activity at 1 µM / viability at 10 µM / activity at 10 µM / viability at 100 µM / activity at 100 µM: 0.00 µM = 100.00; for viability at 0.1 µM / activity at 0.1 µM: 0.10 µM. Summed up: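 Readouts from high-content images were normalized to vehicle controls containing 0.5% vol/vol DMSO. They were fit to a four-parameter logistic model in R. Points of departure were set using a cutoff of one standard deviation across vehicle control means. Where no concentration–response was seen, the top tested concentration of 100μM was assigned as the no observable adverse effect level.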

Setting [1] is: Cardiomyocyte, 1.5 h, read-out: cm.cam.90min.
[2] abbreviates: Cardiomyocyte, 1.5 h, read-out: cm.mii.90min.
Where [3] appears, read: Cardiomyocyte, 1.5 h, read-out: cm.mito.90min.
The mark [4] stands for this setting: Cardiomyocyte, 1.5 h, read-out: cm.tc.90min.
The mark [5] stands for this setting: Cardiomyocyte, 24 h, read-out: cm.cam.24hrs.
Where [6] appears, read: Cardiomyocyte, 24 h, read-out: cm.mii.24hrs.
Where [7] appears, read: Cardiomyocyte, 24 h, read-out: cm.mito.24hrs.
Setting [8] is: Cardiomyocyte, 24 h, read-out: cm.tc.24hrs.
The mark [9] stands for this setting: Cardiomyocyte, 1.5 h, cardiomyocytes (cm), cam, 90 min, read-out: POD cm.cam.90min.
The mark [10] stands for this setting: Cardiomyocyte, 1.5 h, cardiomyocytes (cm), mii, 90 min, read-out: POD cm.mii.90min.
Setting [11] is: Cardiomyocyte, 1.5 h, cardiomyocytes (cm), mito, 90 min, read-out: POD cm.mito.90min.
Setting [12] is: Cardiomyocyte, 1.5 h, cardiomyocytes (cm), tc, 90 min, read-out: POD cm.tc.90min.
[13] abbreviates: Cardiomyocyte, 24 h, cardiomyocytes (cm), cam, 24 hrs, read-out: POD cm.cam.24hrs.
Setting [14] is: Cardiomyocyte, 24 h, cardiomyocytes (cm), mii, 24 hrs, read-out: POD cm.mii.24hrs.
Where [15] appears, read: Cardiomyocyte, 24 h, cardiomyocytes (cm), mito, 24 hrs, read-out: POD cm.mito.24hrs.
[16] abbreviates: Cardiomyocyte, 24 h, cardiomyocytes (cm), tc, 24 hrs, read-out: POD cm.tc.24hrs.

Structures can show the parent of a compound that is named as a salt. Where two headings read alike, the source gives them in different places.

As for `O=S(=O)(O)Oc1cc(Cl)ccc1-c1ccccc1` [2-yl PCB 3 sulfate], the viability at 0.01 µM under setting [1] came out at 88.1%, the viability at 0.01 µM under setting [4] stood at 88.3%, the viability at 0.01 µM under setting [5] turned out to be 99.2% and the viability at 0.01 µM under setting [8] was determined as 101%. Further, the activity at 0.01 µM was determined as 116% under setting [2], 87.6% under setting [3], 94.5% under setting [6] and 100% under setting [7]. The viability at 0.1 µM runs as follows: under setting [1], 98.3%; under setting [4], 98.4%; under setting [5], 101%; under setting [8], 101%. Moreover, the activity at 0.1 µM under setting [2] came to 105%, the activity at 0.1 µM under setting [3] was 98.4%, the activity at 0.1 µM under setting [6] stood at 102% and the activity at 0.1 µM under setting [7] turned out to be 101%. For the same compound, the viability at 1 µM is, setting by setting: under setting [1], 105%; under setting [4], 105%; under setting [5], 101%; under setting [8], 101%. Further, the activity at 1 µM is 88.6% under setting [2], 105% under setting [3], 102% under setting [6] and 103% under setting [7]. Besides, the viability at 10 µM under setting [1] was determined as 100%, the viability at 10 µM under setting [4] amounted to 101%, the viability at 10 µM under setting [5] was determined as 102% and the viability at 10 µM under setting [8] amounted to 102%. Further, the activity at 10 µM came to 96.5% under setting [2], 101% under setting [3], 85.7% under setting [6] and 102% under setting [7]. Moreover, the viability at 100 µM is, setting by setting: under setting [1], 104%; under setting [4], 105%; under setting [5], 98.3%; under setting [8], 98.5%. Also, the activity at 100 µM reads like this: under setting [2], 81%; under setting [3], 105%; under setting [6], 91.6%; under setting [7], 99.6%. In addition, the minimal effective concentration is 100 µM (iPSC-CM, 1.5 h, iPSC-CM, read-out: cm.cam.90min POD); 7.39 µM (iPSC-CM, 1.5 h, iPSC-CM, read-out: cm.mii.90min POD); 100 µM (iPSC-CM, 1.5 h, iPSC-CM, read-out: cm.mito.90min POD); 100 µM (iPSC-CM, 1.5 h, iPSC-CM, read-out: cm.tc.90min POD); 100 µM (iPSC-CM, 24 h, iPSC-CM, read-out: cm.cam.24hrs POD); 100 µM (iPSC-CM, 24 h, iPSC-CM, read-out: cm.mii.24hrs POD). Besides, the minimal effective concentration is, setting by setting: (iPSC-CM, 24 h, iPSC-CM, read-out: cm.mito.24hrs POD) 100 µM; (iPSC-CM, 24 h, iPSC-CM, read-out: cm.tc.24hrs POD) 100 µM.

As for `O=S(=O)(O)Oc1cc(-c2ccccc2)ccc1Cl` [3-PCB 3 sulfate], the minimal effective concentration is, setting by setting: under setting [9], 100 µM; under setting [10], 100 µM; under setting [11], 100 µM; under setting [12], 100 µM; under setting [13], 100 µM; under setting [14], 22.8 µM. In addition, the minimal effective concentration amounted to 100 µM under setting [15] and 100 µM under setting [16].

As to `Oc1cc(Cl)c(-c2cc(Cl)ccc2Cl)cc1Cl` [4-OH-PCB 52], the minimal effective concentration runs as follows: under setting [9], 8.86 µM; under setting [10], 45.7 µM; under setting [11], 8.61 µM; under setting [12], 8.75 µM; under setting [13], 32.7 µM; under setting [14], 65.1 µM. Also, the minimal effective concentration reads like this: under setting [15], 36.7 µM; under setting [16], 41.4 µM.

For the origin of these results see article PMC7377239, “Cardiovascular Effects of Polychlorinated Biphenyls and Their Major Metabolites” (Environmental Health Perspectives, 2020).
